Reference: paper PMC3969223, “Characterization of WZ4003 and HTH-01-015 as selective inhibitors of the LKB1-tumour-suppressor-activated NUAK kinases” (Biochemical Journal, 2013)

How the values were obtained:
Test in all cases: Kinase profiling
Details in all cases: 0.1 or 1 μM inhibitor; mean of triplicate
[1] = target: PINK (Tribolium castaneum, UniProt D6WMX4); type: biochemical, insect
Method: Kinase inhibitor specificity profiling assays were carried out at The International Centre for Protein Kinase Profiling (http://www.kinase-screen.mrc.ac.uk/) against a panel of 140 protein kinases as described previously. Results are presented as a percentage of kinase activity in DMSO control reactions. Protein kinases were assayed in vitro with 0.1 or 1 μM of the inhibitors and the results are presented as an average of triplicate reactions±S.D. or in the form of comparative histograms.

[2] = target: HER4 (Homo sapiens, UniProt Q15303); type: biochemical
In short: (§1)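 In this specificity profiling, inhibitors at 0.1 or 1 μM were run against 140 protein kinases in vitro. Activity is reported relative to DMSO-treated controls as mean ±S.D. of three reactions.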

[3] = target: SYK (Homo sapiens, UniProt P43405); type: biochemical
In short: as §1

[4] = target: TTBK2 (Homo sapiens, UniProt Q6IQ55); type: biochemical
In short: as §1

[5] = target: p38α MAPK (Homo sapiens, UniProt Q16539); type: biochemical
In short: as §1

[6] = target: ERK5 (Homo sapiens, UniProt Q13164); type: biochemical
In short: as §1

[7] = target: CHK1 (Homo sapiens, UniProt O14757); type: biochemical
In short: as §1

[8] = target: MST3 (Homo sapiens, UniProt Q9Y6E0); type: biochemical
[9] = target: PKD1 (Homo sapiens, UniProt Q15139); type: biochemical
In short: as §1

[10] = target: MNK2 (Homo sapiens, UniProt Q9HBH9); type: biochemical
In short: as §1

[11] = target: BRK (Homo sapiens, UniProt Q13882); type: biochemical
In short: as §1

[12] = target: MAPKAP-K2 (Homo sapiens, UniProt P49137); type: biochemical
In short: as §1

[13] = target: Lck (Homo sapiens, UniProt P06239); type: biochemical
In short: as §1

[14] = target: MLK3 (Homo sapiens, UniProt Q16584); type: biochemical
In short: as §1

[15] = target: MARK4 (Homo sapiens, UniProt Q96L34); type: biochemical
[16] = target: SRPK1 (Homo sapiens, UniProt Q96SB4); type: biochemical
In short: as §1

[17] = target: EPH-A4 (Homo sapiens, UniProt P54764); type: biochemical
In short: as §1

Sequence of Lck (P06239 whole entry): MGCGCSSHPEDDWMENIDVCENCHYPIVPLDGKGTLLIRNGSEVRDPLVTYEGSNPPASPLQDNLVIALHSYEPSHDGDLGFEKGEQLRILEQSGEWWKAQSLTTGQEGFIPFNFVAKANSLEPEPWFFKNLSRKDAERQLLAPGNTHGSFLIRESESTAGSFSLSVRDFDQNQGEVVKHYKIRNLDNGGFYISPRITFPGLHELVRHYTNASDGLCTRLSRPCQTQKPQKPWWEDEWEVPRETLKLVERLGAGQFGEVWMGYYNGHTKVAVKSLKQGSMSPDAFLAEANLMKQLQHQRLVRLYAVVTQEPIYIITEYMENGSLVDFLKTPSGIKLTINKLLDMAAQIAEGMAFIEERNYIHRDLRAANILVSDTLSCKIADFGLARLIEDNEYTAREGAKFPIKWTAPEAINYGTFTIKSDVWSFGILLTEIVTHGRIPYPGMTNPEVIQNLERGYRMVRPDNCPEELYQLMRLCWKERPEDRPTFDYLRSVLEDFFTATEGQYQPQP
Sequence of HER4 (Q15303 26-1308): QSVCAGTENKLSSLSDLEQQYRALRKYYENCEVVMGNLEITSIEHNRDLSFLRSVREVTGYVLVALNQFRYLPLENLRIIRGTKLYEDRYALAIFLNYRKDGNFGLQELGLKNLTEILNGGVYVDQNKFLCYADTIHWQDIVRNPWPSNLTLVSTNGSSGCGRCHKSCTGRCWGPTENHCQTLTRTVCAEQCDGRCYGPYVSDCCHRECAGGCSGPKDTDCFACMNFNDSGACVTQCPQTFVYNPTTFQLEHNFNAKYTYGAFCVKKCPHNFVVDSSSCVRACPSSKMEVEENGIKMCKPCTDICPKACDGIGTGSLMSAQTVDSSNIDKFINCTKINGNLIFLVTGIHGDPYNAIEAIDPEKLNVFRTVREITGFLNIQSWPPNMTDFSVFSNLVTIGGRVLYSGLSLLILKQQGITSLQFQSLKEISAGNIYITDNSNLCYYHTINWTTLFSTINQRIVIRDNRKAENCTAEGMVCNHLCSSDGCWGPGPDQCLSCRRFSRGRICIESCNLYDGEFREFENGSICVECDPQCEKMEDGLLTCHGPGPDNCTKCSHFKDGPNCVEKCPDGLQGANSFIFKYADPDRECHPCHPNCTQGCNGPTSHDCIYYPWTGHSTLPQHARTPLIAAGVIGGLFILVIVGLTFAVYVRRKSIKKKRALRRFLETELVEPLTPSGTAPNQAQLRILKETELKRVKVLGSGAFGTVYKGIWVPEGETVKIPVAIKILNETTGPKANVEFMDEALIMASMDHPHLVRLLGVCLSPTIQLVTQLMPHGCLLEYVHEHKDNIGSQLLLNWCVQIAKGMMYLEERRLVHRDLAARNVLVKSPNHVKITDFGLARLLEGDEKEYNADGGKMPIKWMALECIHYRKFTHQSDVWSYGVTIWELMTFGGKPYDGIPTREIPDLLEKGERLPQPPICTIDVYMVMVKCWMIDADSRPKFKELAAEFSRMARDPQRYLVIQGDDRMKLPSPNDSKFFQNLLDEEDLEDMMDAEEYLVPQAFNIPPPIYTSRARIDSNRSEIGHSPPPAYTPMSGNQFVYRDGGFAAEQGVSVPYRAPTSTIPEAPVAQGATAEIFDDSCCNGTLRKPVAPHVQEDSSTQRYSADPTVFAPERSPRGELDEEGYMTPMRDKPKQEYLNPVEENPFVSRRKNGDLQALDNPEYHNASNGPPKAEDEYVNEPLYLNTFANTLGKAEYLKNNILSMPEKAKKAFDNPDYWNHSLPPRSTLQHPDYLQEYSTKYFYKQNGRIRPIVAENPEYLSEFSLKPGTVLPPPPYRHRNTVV
Sequence of MARK4 (Q96L34 whole entry): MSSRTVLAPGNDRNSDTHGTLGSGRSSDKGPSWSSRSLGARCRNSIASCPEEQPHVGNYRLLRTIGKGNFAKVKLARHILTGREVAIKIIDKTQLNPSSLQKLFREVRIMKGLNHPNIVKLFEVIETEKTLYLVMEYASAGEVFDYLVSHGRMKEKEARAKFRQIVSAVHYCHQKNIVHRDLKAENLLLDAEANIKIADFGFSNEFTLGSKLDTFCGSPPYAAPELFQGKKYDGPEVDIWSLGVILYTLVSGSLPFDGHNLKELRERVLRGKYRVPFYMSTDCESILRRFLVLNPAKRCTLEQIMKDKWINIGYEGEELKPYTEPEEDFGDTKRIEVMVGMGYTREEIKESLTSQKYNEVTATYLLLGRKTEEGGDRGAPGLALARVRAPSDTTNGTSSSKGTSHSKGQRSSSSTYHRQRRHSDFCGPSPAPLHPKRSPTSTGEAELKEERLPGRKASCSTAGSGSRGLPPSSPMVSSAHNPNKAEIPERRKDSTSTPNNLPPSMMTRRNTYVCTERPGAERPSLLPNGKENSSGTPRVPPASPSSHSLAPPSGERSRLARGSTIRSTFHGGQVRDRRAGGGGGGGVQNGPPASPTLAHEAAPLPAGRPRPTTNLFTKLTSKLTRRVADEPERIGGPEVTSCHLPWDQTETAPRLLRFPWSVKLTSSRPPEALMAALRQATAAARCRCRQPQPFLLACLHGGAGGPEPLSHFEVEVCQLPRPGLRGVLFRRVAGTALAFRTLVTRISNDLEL
Sequence of MAPKAP-K2 (P49137 whole entry): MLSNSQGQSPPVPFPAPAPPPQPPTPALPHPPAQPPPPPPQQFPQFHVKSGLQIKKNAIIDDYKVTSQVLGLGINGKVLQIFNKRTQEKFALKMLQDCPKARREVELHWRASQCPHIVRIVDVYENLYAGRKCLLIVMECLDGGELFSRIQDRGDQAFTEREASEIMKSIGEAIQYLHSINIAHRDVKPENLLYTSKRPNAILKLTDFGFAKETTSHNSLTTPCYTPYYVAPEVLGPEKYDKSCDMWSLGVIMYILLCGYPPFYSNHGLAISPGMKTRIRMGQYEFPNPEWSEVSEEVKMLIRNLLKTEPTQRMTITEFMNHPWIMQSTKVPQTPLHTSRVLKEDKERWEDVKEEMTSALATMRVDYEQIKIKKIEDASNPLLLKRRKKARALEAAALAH
Sequence of TTBK2 (Q6IQ55 whole entry): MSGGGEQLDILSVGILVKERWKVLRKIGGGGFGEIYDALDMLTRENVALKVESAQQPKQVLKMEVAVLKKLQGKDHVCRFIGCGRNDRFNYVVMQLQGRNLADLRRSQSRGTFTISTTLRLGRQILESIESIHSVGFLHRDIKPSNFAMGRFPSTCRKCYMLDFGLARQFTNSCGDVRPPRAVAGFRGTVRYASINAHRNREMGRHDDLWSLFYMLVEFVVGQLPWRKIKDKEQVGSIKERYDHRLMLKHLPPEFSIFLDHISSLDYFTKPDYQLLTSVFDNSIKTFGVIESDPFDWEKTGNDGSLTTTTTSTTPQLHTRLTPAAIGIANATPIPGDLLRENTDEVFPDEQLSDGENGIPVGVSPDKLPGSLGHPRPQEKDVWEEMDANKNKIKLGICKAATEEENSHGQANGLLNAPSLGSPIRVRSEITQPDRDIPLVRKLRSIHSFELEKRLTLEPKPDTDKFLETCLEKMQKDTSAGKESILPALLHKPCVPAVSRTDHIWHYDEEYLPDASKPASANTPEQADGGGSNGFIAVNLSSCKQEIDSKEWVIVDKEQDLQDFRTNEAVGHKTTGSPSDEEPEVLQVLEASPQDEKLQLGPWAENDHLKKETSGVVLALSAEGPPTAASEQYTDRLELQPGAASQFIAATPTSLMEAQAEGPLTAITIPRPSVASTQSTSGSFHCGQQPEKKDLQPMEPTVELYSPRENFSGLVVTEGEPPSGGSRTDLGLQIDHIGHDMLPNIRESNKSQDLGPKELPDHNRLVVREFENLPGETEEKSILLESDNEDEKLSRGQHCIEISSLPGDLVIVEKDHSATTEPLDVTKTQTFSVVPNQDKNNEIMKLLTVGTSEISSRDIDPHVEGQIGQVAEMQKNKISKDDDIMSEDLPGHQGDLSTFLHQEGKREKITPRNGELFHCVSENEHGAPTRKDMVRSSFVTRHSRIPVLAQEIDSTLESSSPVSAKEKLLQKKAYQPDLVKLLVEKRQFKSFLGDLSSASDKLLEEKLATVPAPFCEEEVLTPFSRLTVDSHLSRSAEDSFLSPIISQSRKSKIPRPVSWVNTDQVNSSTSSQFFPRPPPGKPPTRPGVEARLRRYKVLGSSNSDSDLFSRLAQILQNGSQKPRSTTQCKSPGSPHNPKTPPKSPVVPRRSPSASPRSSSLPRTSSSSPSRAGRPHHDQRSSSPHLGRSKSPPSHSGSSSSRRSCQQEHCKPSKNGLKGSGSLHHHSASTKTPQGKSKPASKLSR
Sequence of p38α MAPK (Q16539 whole entry): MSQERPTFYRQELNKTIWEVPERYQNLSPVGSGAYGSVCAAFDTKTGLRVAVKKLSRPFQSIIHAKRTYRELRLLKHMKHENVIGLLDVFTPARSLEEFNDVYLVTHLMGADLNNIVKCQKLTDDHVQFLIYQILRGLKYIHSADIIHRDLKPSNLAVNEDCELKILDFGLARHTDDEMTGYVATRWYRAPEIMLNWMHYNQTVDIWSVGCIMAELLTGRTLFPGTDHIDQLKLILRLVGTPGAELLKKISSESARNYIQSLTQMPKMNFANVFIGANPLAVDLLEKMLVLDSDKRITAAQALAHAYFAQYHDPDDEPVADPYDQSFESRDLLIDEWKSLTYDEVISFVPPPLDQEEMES
Sequence of MST3 (Q9Y6E0 whole entry): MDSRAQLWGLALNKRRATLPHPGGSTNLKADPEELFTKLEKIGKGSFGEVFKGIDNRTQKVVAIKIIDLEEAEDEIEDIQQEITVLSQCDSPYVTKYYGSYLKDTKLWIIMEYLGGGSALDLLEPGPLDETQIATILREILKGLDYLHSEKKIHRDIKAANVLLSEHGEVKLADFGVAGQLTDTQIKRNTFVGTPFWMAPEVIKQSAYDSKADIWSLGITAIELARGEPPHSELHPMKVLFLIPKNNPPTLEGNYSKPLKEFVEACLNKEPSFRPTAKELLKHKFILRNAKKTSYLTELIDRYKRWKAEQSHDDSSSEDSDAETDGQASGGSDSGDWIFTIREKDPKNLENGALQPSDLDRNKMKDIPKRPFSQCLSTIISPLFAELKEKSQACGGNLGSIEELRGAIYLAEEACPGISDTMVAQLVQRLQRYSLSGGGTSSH

Cc1nc(Nc2cnn(C3CCNCC3)c2)nc2c1N(C)C(=O)c1cc3ccccc3cc1N2C [HTH-01-015]
PINK activity, percentage of DMSO control [1]: 99 percentage
HER4 activity, percentage of DMSO control [2]: 102 percentage
SYK activity, percentage of DMSO control [3]: 125 percentage
TTBK2 activity, percentage of DMSO control [4]: 102 percentage
p38α MAPK activity, percentage of DMSO control [5]: 118 percentage
ERK5 activity, percentage of DMSO control [6]: 121 percentage
CHK1 activity, percentage of DMSO control [7]: 106 percentage
MST3 activity, percentage of DMSO control [8]: 111 percentage
PKD1 activity, percentage of DMSO control [9]: 94 percentage
MNK2 activity, percentage of DMSO control [10]: 106 percentage
BRK activity, percentage of DMSO control [11]: 96 percentage
MAPKAP-K2 activity, percentage of DMSO control [12]: 118 percentage
Lck activity, percentage of DMSO control [13]: 90 percentage
MLK3 activity, percentage of DMSO control [14]: 94 percentage
MARK4 activity, percentage of DMSO control [15]: 75 percentage
SRPK1 activity, percentage of DMSO control [16]: 103 percentage
EPH-A4 activity, percentage of DMSO control [17]: 94 percentage
